Measurements as given in patent US11560385B2, “Proteasome activity enhancing compounds” (Proteostasis Therapeutics, Inc., priority 2018, dated 2023).

Biological target: USP14 (Homo sapiens (Human), UniProt P54578)
Assay: Usp14 inhibition assay (Example 57B, B-series compounds)
Assay type: biochemical
Conditions: IC50 class; average value from a minimum of two experimental determinations
From the text: Example 57B: Usp14 Inhibition Assay
The IC50 values in the Table below represent the average value from a minimum of two experimental determinations.

USP14, sequence (P54578 whole entry, looked up): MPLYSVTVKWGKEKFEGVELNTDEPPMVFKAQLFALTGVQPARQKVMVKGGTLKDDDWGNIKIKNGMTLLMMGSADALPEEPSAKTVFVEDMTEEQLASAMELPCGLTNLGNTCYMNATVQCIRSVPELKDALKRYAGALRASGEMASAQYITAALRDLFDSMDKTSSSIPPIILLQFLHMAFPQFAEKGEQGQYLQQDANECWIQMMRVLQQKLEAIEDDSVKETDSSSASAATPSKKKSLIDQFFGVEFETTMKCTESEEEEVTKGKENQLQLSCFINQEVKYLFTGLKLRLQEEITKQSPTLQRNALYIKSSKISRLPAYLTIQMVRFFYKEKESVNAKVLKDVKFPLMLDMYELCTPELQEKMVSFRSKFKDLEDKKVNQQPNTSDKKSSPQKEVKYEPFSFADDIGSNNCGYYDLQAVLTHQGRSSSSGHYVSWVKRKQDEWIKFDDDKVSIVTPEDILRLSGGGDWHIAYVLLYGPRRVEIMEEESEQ

Structure (SMILES) | IC50
Cc1c(C(=O)CN2C3CCC2[C@@H](O)C3)cc(C2CCCC2)n1-c1ccc(C#N)cc1 (mixture of isomers) [Example 110B, (±)-4-(5-Cyclopentyl-3-(2-((2R)-2-hydroxy-7-azabicyclo[2.2.1]heptan-7-yl)acetyl)-2-methyl-1H-pyrrol-1-yl)benzonitrile] | 50 to 500 nM
Cc1cc(C(=O)CN2[C@@H]3CC[C@H]2[C@@H](C)[C@H]3C)c(C)n1-c1ccc(C#N)cc1 [Example 124B, 4-(3-(2-((1R,2R,3S,4S)-2,3-Dimethyl-7-azabicyclo[2.2.1]heptan-7-yl)acetyl)-2,5-dimethyl-1H-pyrrol-1-yl)benzonitrile] | 50 to 500 nM
Cc1c(C(=O)CN2C3CCC2CC3)c(C)n(-c2ccc(C#N)cc2)c1/C=C/CCS(C)(=O)=O [Example 32B, (E)-4-(3-(2-(7-Azabicyclo[2.2.1]heptan-7-yl)acetyl)-2,4-dimethyl-5-(4-(methylsulfonyl)but-1-en-1-yl)-1H-pyrrol-1-yl)benzonitrile] | 50 to 500 nM
Cc1cc(C(=O)CN2C3CCCC2CC(O)C3)c(C)n1-c1ccc(C#N)cc1 [Example 86B, 4-(3-(2-((1R,3r,5S)-3-Hydroxy-9-azabicyclo[3.3.1]nonan-9-yl)acetyl)-2,5-dimethyl-1H-pyrrol-1-yl)benzonitrile] | 50 to 500 nM
Cc1cc(C(=O)CN2[C@@H]3CC[C@H]2[C@](O)(C(C)(C)C)C3)c(C)n1-c1ccc(C#N)cc1 (racemic) [Example 72B, (±)-4-(3-(2-((1R,2S,4S)-2-(tert-Butyl)-2-hydroxy-7-azabicyclo[2.2.1]heptan-7-yl)acetyl)-2,5-dimethyl-1H-pyrrol-1-yl)benzonitrile] | > 500 nM
Cc1c(C(=O)CN2C3CCC2CC3)cc(/C=C/CCS(C)(=O)=O)n1-c1ccc(C#N)cc1 [Example 35B, (E)-4-(3-(2-(7-Azabicyclo[2.2.1]heptan-7-yl)acetyl)-2-methyl-5-(4-(methylsulfonyl)but-1-en-1-yl)-1H-pyrrol-1-yl)benzonitrile] | < 50 nM
Cc1c(C#N)c(C(=O)CN2C3CCC2[C@@H](O)C3)c(C)n1-c1ccc(C#N)cc1 (mixture of isomers) [Example 33B, (±)-1-(4-Cyanophenyl)-4-(2-((2R)-2-hydroxy-7-azabicyclo[2.2.1]heptan-7-yl)acetyl)-2,5-dimethyl-1H-pyrrole-3-carbonitrile] | > 500 nM
Cc1cc(C(=O)CN2C3CCC2[C@@H](O)C3)c(C)n1-c1ccc(C#N)cc1 (mixture of isomers) [Example 64B, (±)-4-(3-(2-((2R)-2-Hydroxy-7-azabicyclo[2.2.1]heptan-7-yl)acetyl)-2,5-dimethyl-1H-pyrrol-1-yl)benzonitrile] | 50 to 500 nM
Cc1c(C(=O)CN2[C@@H]3CC[C@H]2[C@@H](O)C3)cc(CCCCC2COC2)n1-c1ccc(C#N)cc1 (racemic) [Example 23B, (±)-4-(3-(2-((1S,2S,4R)-2-Hydroxy-7-azabicyclo[2.2.1]heptan-7-yl)acetyl)-2-methyl-5-(4-(oxetan-3-yl)butyl)-1H-pyrrol-1-yl)benzonitrile] | < 50 nM
Cc1c(C(=O)CN2C3CCC2C(O)C3)cc([C@@H]2C[C@H]2CCC#N)n1-c1ccc(C#N)cc1 (mixture of isomers) [Example 17B, (±)-4-(5-((1R,2R)-2-(2-Cyanoethyl)cyclopropyl)-3-(2-((2R)-2-hydroxy-7-azabicyclo[2.2.1]heptan-7-yl)acetyl)-2-methyl-1H-pyrrol-1-yl)benzonitrile] | 50 to 500 nM
Cc1c(F)c(C(=O)CN2[C@@H]3C=C(C(F)(F)F)[C@H]2CC3)c(C)n1-c1ccc(C#N)cc1 (racemic) [Example 149B, (±)-4-(3-Fluoro-2,5-dimethyl-4-(2-((1R,4S)-2-(trifluoromethyl)-7-azabicyclo[2.2.1]hept-2-en-7-yl)acetyl)-1H-pyrrol-1-yl)benzonitrile] | 50 to 500 nM
Cc1nccn1C/C=C/c1cc(C(=O)CN2C3CCC2[C@@H](O)C3)c(C)n1-c1ccc(C#N)cc1 (mixture of isomers) [Example 6B, (±)-4-(3-(2-((2R)-2-Hydroxy-7-azabicyclo[2.2.1]heptan-7-yl)acetyl)-2-methyl-5-((E)-3-(2-methyl-1H-imidazol-1-yl)prop-1-en-1-yl)-1H-pyrrol-1-yl)benzonitrile] | < 50 nM
Cc1c(C(=O)CN2[C@H]3CC[C@@H]2[C@@H](O)C3)cc(CC23CC(C2)C3)n1-c1ccc(C#N)cc1 (racemic) [Example 158B, (±)-4-(5-(Bicyclo[1.1.1]pentan-1-ylmethyl)-3-(2-((1R,2S,4S)-2-hydroxy-7-azabicyclo[2.2.1]heptan-7-yl)acetyl)-2-methyl-1H-pyrrol-1-yl)benzonitrile] | > 500 nM
Cc1c(C(=O)CN2[C@H]3CC[C@@H]2[C@@H](C)C3)cc(CC2COC2)n1-c1ccc(C#N)cc1 (racemic) [Example 56B, (±)-4-(2-Methyl-3-(2-((1R,2S,4S)-2-methyl-7-azabicyclo[2.2.1]heptan-7-yl)acetyl)-5-(oxetan-3-ylmethyl)-1H-pyrrol-1-yl)benzonitrile] | 50 to 500 nM
Cc1c(C(=O)CN2C3CCC2[C@@H](O)C3)cc(C[C@H]2C[C@H](C#N)C2)n1-c1ccc(C#N)cc1 (mixture of isomers) [Example 45B, (±)-4-(5-(((1r,3R)-3-Cyanocyclobutyl)methyl)-3-(2-((2R)-2-hydroxy-7-azabicyclo[2.2.1]heptan-7-yl)acetyl)-2-methyl-1H-pyrrol-1-yl)benzonitrile] | < 50 nM
COC1C[C@H]2CC[C@H](C1)N2CC(=O)c1cc(C)n(-c2ccc(C#N)cc2)c1C (stereo partly drawn) [Example 89B, 4-(3-(2-((1R,3s,5S)-3-Methoxy-8-azabicyclo[3.2.1]octan-8-yl)acetyl)-2,5-dimethyl-1H-pyrrol-1-yl)benzonitrile] | 50 to 500 nM
Cc1c(C(=O)CN2C3CCC2[C@@H](O)C3)c(Cl)c(Cl)n1-c1ccc(C#N)cc1 (mixture of isomers) [Example 97B, (±)-4-(2,3-Dichloro-4-(2-((2R)-2-hydroxy-7-azabicyclo[2.2.1]heptan-7-yl)acetyl)-5-methyl-1H-pyrrol-1-yl)benzonitrile] | 50 to 500 nM
Cc1cc(C(=O)CN2C3CCC2(CO)CC3)c(C)n1-c1ccc(C#N)cc1 [Example 126B, 4-(3-(2-(1-(Hydroxymethyl)-7-azabicyclo[2.2.1]heptan-7-yl)acetyl)-2,5-dimethyl-1H-pyrrol-1-yl)benzonitrile] | 50 to 500 nM
Cc1c(C(=O)CN2C3CCC2[C@@H](O)C3)cc(C(C)(C)C)n1-c1ccc(C#N)cc1 (mixture of isomers) [Example 113B, (±)-4-(5-(tert-Butyl)-3-(2-((2R)-2-hydroxy-7-azabicyclo[2.2.1]heptan-7-yl)acetyl)-2-methyl-1H-pyrrol-1-yl)benzonitrile] | 50 to 500 nM
Cc1c(F)c(C(=O)CN2C3CCC2[C@@H](O)C3)c(C)n1-c1ccc(C#N)cc1 (mixture of isomers) [Example 78B, (±)-4-(3-Fluoro-4-(2-((2R)-2-hydroxy-7-azabicyclo[2.2.1]heptan-7-yl)acetyl)-2,5-dimethyl-1H-pyrrol-1-yl)benzonitrile] | 50 to 500 nM
Cc1c(C(=O)CN2[C@@H]3CC[C@H]2[C@@H](O)C3)cc(-c2csc(C(F)(F)F)n2)n1-c1ccc(C#N)cc1 (racemic) [Example 145B, (±)-4-(3-(2-((1R,2R,4S)-2-Hydroxy-7-azabicyclo[2.2.1]heptan-7-yl)acetyl)-2-methyl-5-(2-(trifluoromethyl)thiazol-4-yl)-1H-pyrrol-1-yl)benzonitrile] | > 500 nM
Cc1c(C(=O)CN2C3CCC2[C@@H](O)C3)c(Cl)c(/C=C/CC(C)(C)C#N)n1-c1ccc(C#N)cc1 (mixture of isomers) [Example 46B, (±)-4-(3-Chloro-2-((E)-4-cyano-4-methylpent-1-en-1-yl)-4-(2-((2R)-2-hydroxy-7-azabicyclo[2.2.1]heptan-7-yl)acetyl)-5-methyl-1H-pyrrol-1-yl)benzonitrile] | 50 to 500 nM
Cc1c(C(=O)CN2C3CCC2[C@H](O)C3)cc(C(C)CCS(C)(=O)=O)n1-c1ccc(C#N)cc1 (mixture of isomers) [Example 11B, (±)-4-(3-(2-((2R)-2-Hydroxy-7-azabicyclo[2.2.1]heptan-7-yl)acetyl)-2-methyl-5-(4-(methylsulfonyl)butan-2-yl)-1H-pyrrol-1-yl)benzonitrile] | > 500 nM
Cc1c(CCCCS(C)(=O)=O)c(C(=O)CN2C3CCC2[C@@H](O)C3)c(C)n1-c1ccc(C#N)cc1 (mixture of isomers) [Example 19B, (±)-4-(3-(2-((2R)-2-Hydroxy-7-azabicyclo[2.2.1]heptan-7-yl)acetyl)-2,5-dimethyl-4-(4-(methylsulfonyl)butyl)-1H-pyrrol-1-yl)benzonitrile] | > 500 nM
Cc1c(C(=O)CN2[C@@H]3CC[C@@H]2[C@@H](O)C3)cc(CC2CCOCC2)n1-c1ccc(C#N)cc1 (racemic) [Example 44B, (±)-4-(3-(2-((1R,2S,4R)-2-Hydroxy-7-azabicyclo[2.2.1]heptan-7-yl)acetyl)-2-methyl-5-((tetrahydro-2H-pyran-4-yl)methyl)-1H-pyrrol-1-yl)benzonitrile] | < 50 nM
Cc1c(C(=O)CN2C3CCC2[C@@H](O)C3)cc(C#N)n1-c1ccc(C#N)cc1 (mixture of isomers) [Example 47B, (±)-1-(4-Cyanophenyl)-4-(2-((2R)-2-hydroxy-7-azabicyclo[2.2.1]heptan-7-yl)acetyl)-5-methyl-1H-pyrrole-2-carbonitrile] | < 50 nM
Cc1cc(C(=O)CN2C3CCC2[C@@H](O)C3)c(C)n1-c1ccc(Cl)c(F)c1 (mixture of isomers) [Example 117B, (±)-1-(1-(4-Chloro-3-fluorophenyl)-2,5-dimethyl-1H-pyrrol-3-yl)-2-((2R)-2-hydroxy-7-azabicyclo[2.2.1]heptan-7-yl)ethan-1-one] | 50 to 500 nM
Cc1c(C(=O)CN2[C@@H]3CC[C@H]2[C@@H](O)C3)cc(CCCCC2CCOCC2)n1-c1ccc(C#N)cc1 (racemic) [Example 14B, (±)-4-(3-(2-((1S,2S,4R)-2-Hydroxy-7-azabicyclo[2.2.1]heptan-7-yl)acetyl)-2-methyl-5-(4-(tetrahydro-2H-pyran-4-yl)butyl)-1H-pyrrol-1-yl)benzonitrile] | < 50 nM
Cc1c(C(=O)CN2C3CCC2[C@@H](O)C3)cc(CC(F)(F)F)n1-c1ccc(C#N)cc1 (mixture of isomers) [Example 115B, (±)-4-(3-(2-((2R)-2-Hydroxy-7-azabicyclo[2.2.1]heptan-7-yl)acetyl)-2-methyl-5-(2,2,2-trifluoroethyl)-1H-pyrrol-1-yl)benzonitrile] | 50 to 500 nM
